In US20050137185A1, “Combinations of drugs for the treatment of neoplasms” (priority 2003, published 2005) one finds inhibition data, which are given here for five molecules.

As usually defined, the inhibition is the drop in the measured response relative to a control, in per cent.

Like-named read-outs stand apart in the source and are kept apart here.

The test system of the assay is HCT116 cells. As to the kind of experiment: Anti-proliferation assay (Alamar Blue metabolism). The class given is cell-based. The conditions noted are these: Homo sapiens, read-out: Percent inhibition of Alamar Blue Metabolism in HCT116 cells; for inhibition at 5 µM: HCT-116, chlorpromazine 5 μM; for inhibition at 10 µM: HCT-116, chlorpromazine 10 μM; for inhibition at 40 µM: HCT-116, chlorpromazine 40 μM. Here is the method:
Stock solutions (1000×) of each compound were prepared in DMSO and stored at −20° C. Master stock plates of 2-fold or 4-fold serial dilutions of individual compounds were prepared in 384-well plates. Combination matrices of test compounds were generated from these master stock plates by dilution into growth media described above. […] The combination matrices were used immediately and discarded.
The anti-proliferation assays were performed in 384-well plates. […] Cells were diluted in culture media such that 1500 cells were delivered in 40 μL of media into each assay well. […] 10× stock solutions (4.5 μL) from the combination matrices were added to 40 μL of culture media in assay wells. Assay plates were incubated for 72-80 hours at 37±0.5° C. with 5% CO2. […] Alamar Blue metabolism was quantified by the amount of fluorescence intensity 3.5-5.0 hours after addition. Quantification, using an LJL Analyst AD reader (LJL Biosystems), was taken in the middle of the well with high attenuation, a 100 msec read time, an excitation filter at 530 nm, and an emission filter at 575 nm. For some experiments, quantification was performed using a Wallac Victor^2 reader. Measurements were taken at the top of the well with stabilized energy lamp control; a 100 msec read time, an excitation filter at 530 nm, and an emission filter at 590 nm.
(Resazurin is reduced to fluorescent resorufin, in cell work by metabolically active cells.)

Take `CCC1=C[C@@H]2CN(C1)Cc1c([nH]c3ccccc13)[C@@](C(=O)OC)(c1cc3c(cc1OC)N(C)[C@H]1[C@@](O)(C(=O)OC)[C@H](OC(C)=O)[C@]4(CC)C=CCN5CC[C@]31[C@@H]54)C2` [Vinorelbine, vinorelbine]: for the setting “HCT-116, chlorpromazine 0 μM, vinorelbine 0.004 μM”, the inhibition at 0.004 µM is -8.91%. Also, under “HCT-116, chlorpromazine 0 μM, vinorelbine 0.008 μM”, the inhibition at 0.008 µM came out at 42.1%.
In the case of `Nc1nc2c(c(=O)[nH]1)N(C=O)C(CNc1ccc(C(=O)N[C@@H](CCC(=O)O)C(=O)O)cc1)CN2` (some centres unmarked) [Leucovorin, leucovorin], the inhibition at 20 µM (HCT-116, chlorpromazine 0 μM, leucovorin 20 μM) was -11.5%.
Regarding `COc1cc2ncnc(Nc3cccc(Cl)c3)c2cc1OC` [Tyrphostin 1486, Tyrphostin AG1478], the inhibition at 13 µM (HCT-116, chlorpromazine 0 μM, tyrphostin 1486 13 μM) turned out to be 78.7%. Moreover, the inhibition at 26 µM (HCT-116, chlorpromazine 0 μM, tyrphostin 1486 26 μM) came to 81.4%. Further, where the note is “HCT-116, chlorpromazine 0 μM, tyrphostin 1486 51 μM”, the inhibition at 51 µM amounted to 81.3%.
Consider `CN(C)/N=N/c1[nH]cnc1C(N)=O` [Dacarbazine, dacarbazine], for which the inhibition at 14 µM (HCT-116, chlorpromazine 0 μM, dacarbazine 14 μM) stood at 42.6%. Moreover, the inhibition at 27 µM (HCT-116, chlorpromazine 0 μM, dacarbazine 27 μM) worked out at 64.6%. Besides, for the setting “HCT-116, chlorpromazine 0 μM, dacarbazine 55 μM”, the inhibition at 55 µM came to 74.2%.
For the molecule `CN(C)CCCN1c2ccccc2Sc2ccc(Cl)cc21` [Chlorpromazine, chlorpromazine], for the setting “HCT-116, 72 h, chlorpromazine 7 μM, tyrphostin 1486 0 μM”, the inhibition at 7 µM is -18.6%. Also, where the note is “HCT-116, 72 h, chlorpromazine 14 μM, tyrphostin 1486 0 μM”, the inhibition at 14 µM is -12.5%. In addition, under “HCT-116, 72 h, chlorpromazine 28 μM, tyrphostin 1486 0 μM”, the inhibition at 28 µM is 62.2%. Moreover, the inhibition at 56 µM (HCT-116, 72 h, chlorpromazine 56 μM, tyrphostin 1486 0 μM) is 85.6%. For the same molecule, the inhibition at […] (HCT-116, 72 h, chlorpromazine […], tyrphostin 1486 0 μM) is 95.9%; the inhibition at […] (HCT-116, chlorpromazine […], dacarbazine 0 μM) is 4.03%; the inhibition at […] (HCT-116, chlorpromazine […], docetaxel 0 μM) is -12.2%; the inhibition at […] (HCT-116, chlorpromazine […], floxuridine 0 μM) was -0.0804%; the inhibition at […] (HCT-116, chlorpromazine […], hydroxycamptothecin 0 μM) was -8.14%; the inhibition at […] (HCT-116, chlorpromazine […], leucovorin 0 μM) is -0.0253%. Also, the inhibition at […] (HCT-116, chlorpromazine […], paclitaxel 0 μM) stood at 10.1%; the inhibition at […] (HCT-116, chlorpromazine […], vinblastine 0 μM) was -20%; the inhibition at […] (HCT-116, chlorpromazine […], vinorelbine 0 μM) is -0.591%. Also, the inhibition at 5 µM is, setting by setting: (dacarbazine 0 μM) 17%; (docetaxel 0 μM) 2.8%; (floxuridine 0 μM) 3.53%; (hydroxycamptothecin 0 μM) 24%; (leucovorin 0 μM) -4.39%; (paclitaxel 0 μM) -11.8%. In addition, the inhibition at 5 µM was -20% (vinblastine 0 μM) and -20% (vinorelbine 0 μM). For the same molecule, the inhibition at 10 µM runs as follows: (dacarbazine 0 μM) 54.6%; (docetaxel 0 μM) 84.8%; (floxuridine 0 μM) 65.4%; (hydroxycamptothecin 0 μM) 84%; (leucovorin 0 μM) 3.27%; (paclitaxel 0 μM) 56.2%. Moreover, the inhibition at 10 µM is, setting by setting: (vinblastine 0 μM) 50.8%; (vinorelbine 0 μM) 60%. For the same molecule, the inhibition at 20 µM was 91.9% (HCT-116, chlorpromazine 20 μM, docetaxel 0 μM); 88.5% (HCT-116, chlorpromazine 20 μM, floxuridine 0 μM); 88.2% (HCT-116, chlorpromazine 20 μM, hydroxycamptothecin 0 μM); 80.9% (HCT-116, chlorpromazine 20 μM, leucovorin 0 μM); 87% (HCT-116, chlorpromazine 20 μM, paclitaxel 0 μM); 85.8% (HCT-116, chlorpromazine 20 μM, vinblastine 0 μM). For the same molecule, the inhibition at 20 µM (HCT-116, chlorpromazine 20 μM, vinorelbine 0 μM) is 88.4%. Also, the inhibition at 40 µM is, setting by setting: (dacarbazine 0 μM) 95.8%; (docetaxel 0 μM) 95.7%; (floxuridine 0 μM) 95.7%; (hydroxycamptothecin 0 μM) 95.8%; (leucovorin 0 μM) 95.6%; (paclitaxel 0 μM) 95.7%. The inhibition at 40 µM amounted to 94.5% (vinblastine 0 μM) and 94.7% (vinorelbine 0 μM).
